# Test results as given in ChEMBL document CHEMBL1148207, “Dictyosphaeric acids A and B: new decalactones from an undescribed Penicillium sp. obtained from the alga Dictyosphaeria versluyii” (2004).
# Activity calls are given as the source filed them. No cut-off for these calls is given here.
# How the values were obtained:
# Candida albicans [1] = assay: Antimicrobial activity against Candida albicans at 50 ug/well; assay type: functional
# Enterococcus faecium [2] = assay: Antibacterial activity against vancomycin-resistant Enterococcus faecium at 50 ug/well; assay type: functional
# Staphylococcus aureus [3] = assay: Antibacterial activity against methicillin-resistant Staphylococcus aureus at 50 ug/well; assay type: functional
# Staphylococcus aureus [4] = assay: Antibacterial activity against methicillin-sensitive Staphylococcus aureus at 50 ug/well; assay type: functional
# Staphylococcus aureus [5] = assay: Antibacterial activity against methicillin-resistant Staphylococcus aureus at 200 ug/well; assay type: functional, organism-based
# Candida albicans [6] = assay: Antimicrobial activity against Candida albicans at 200 ug/well; assay type: functional, organism-based
# Enterococcus faecium [7] = assay: Antibacterial activity against vancomycin-resistant Enterococcus faecium at 200 ug/well; assay type: functional, organism-based
# Staphylococcus aureus [8] = assay: Antibacterial activity against methicillin-sensitive Staphylococcus aureus at 200 ug/well; assay type: functional, organism-based
Compound,Activity (Candida albicans [1]),Activity (Enterococcus faecium [2]),Activity (Staphylococcus aureus [3]),Activity (Staphylococcus aureus [4]),Activity (Staphylococcus aureus [5]),Activity (Candida albicans [6]),Activity (Enterococcus faecium [7]),Activity (Staphylococcus aureus [8]),zone of inhibition at 50 µg/disc (Candida albicans [1]; read-out: IZ) [mm],zone of inhibition at 50 µg/disc (Enterococcus faecium [2]; read-out: IZ) [mm],zone of inhibition at 50 µg/disc (Staphylococcus aureus [3]; read-out: IZ) [mm],zone of inhibition at 50 µg/disc (Staphylococcus aureus [4]; read-out: IZ) [mm]
C[C@H]1CCC[C@@H](O)[C@]2(O)C(=O)C[C@H](O)[C@@H]3OC(/C=C/C=C/C=C/C(=O)O)=C(C(=O)O1)[C@@H]32,inactive,inactive,inactive,inactive,,,,,,,,
COc1cc(CO)cc2c1C(=O)c1c(O)cc(O)cc1C2=O,inactive,inactive,inactive,inactive,inactive,inactive,inactive,inactive,,,,
C[C@H]1CCC[C@@H](O)[C@]2(O)C(=O)C=C[C@@H]3OC(/C=C/C=C/C=C/C(=O)O)=C(C(=O)O1)[C@@H]32 [DICTYOSPHAERIC ACID A],,,,,,,,,7,7,12,11
